Assay results as given in patent publication US9034866B2 (Genentech, Inc., priority 2012, dated 2015).
Where two headings read alike, the source gives them in different places.

What was measured:
[1] = test system: p52 (NF-kB2) nuclear translocation in HeLa cells; assay: p52 nuclear translocation assay (non-classical NF-kB signaling), high content imaging; format: cell-based; settings: 100 ng/mL anti-lymphotoxin beta receptor antibody for 5 hours, read-out: p52 HeLa Transloc Assay (IC50)
Protocol: (§1) (2) A second set of cell assay are used to define the selectivity of NIK inhibitors toward inhibition of classical vs. non-classical NF-kB signaling and rely on quantification of the nuclear translocation of p52 (NF-kB2) and REL-A (p65) using high content cellular imaging. For the p52 (non-classical NF-kB signaling) nuclear translocation assay, HeLa cells are treated with different concentrations of compounds (0.2% DMSO final) in medium containing 10% fetal bovine serum and then stimulated with 100 ng/mL, of an anti-lymphotoxin beta receptor antibody (R&D Systems) for 5 hours. In the REL-A nuclear translocation assay, HeLa cells are incubated with compounds (0.2% DMSO final) for 4.5 hours in medium containing 10% fetal bovine serum before stimulating them with 10 ng/mL tumor necrosis factor (TNF)-α (R&D Systems) for 30 minutes. Cells are fixed with 4% paraformaldehyde, permeabilized by adding 0.1% Triton X-100 in phosphate buffered saline, and then are incubated with either 2 ug/mL anti-p52 antibody (Millipore) or 400 ng/mL anti-REL-A (p65) antibody (Santa Cruz Biotechnology). Finally, the cells are incubated with an Alexa488-labeled secondary antibody (Invitrogen) and DRAQ5 DNA stain (Biostatus). Imaging is carried out using an Opera reader (Perkin Elmer) and data are analyzed with the aid of Acapella software (Perkin Elmer). The p52 or REL-A translocation into the nucleus is quantified by the ratio of the nuclear to cytoplasmic signal intensity. […] The compounds in listed in Table 1 have the corresponding inhibitory value (IC50 in micromolar) for NIK p52 Translocation Assay as set forth in Table 2.

[2] = test system: REL-A (p65) nuclear translocation in HeLa cells; assay: REL-A nuclear translocation assay (classical NF-kB signaling), high content imaging; format: cell-based; settings: Homo sapiens, compounds 4.5 hours, then 10 ng/mL TNF-α for 30 minutes, read-out: REL-A HeLa Transloc Assay (IC50)
Protocol: as §1
The compounds in listed in Table 1 has the corresponding inhibitory value (IC50 in micromolar) for NIK RelA Translocation Assay as set forth in Table 2.

IC50 ([2]; HeLa) [nM]	SMILES	IC50 ([1]; Homo sapiens, HeLa, 5 h) [nM]	IC50 ([1]; Homo sapiens) [nM]	IC50 [2] [nM]	IC50 [1] [nM]
> 20000	Cc1cc([C@](C)(O)C#Cc2ccc3c(c2)-c2nc(C(N)=O)c(CN4CCCC4)n2C2CC3C2)no1 [Example 424, 10-(3-hydroxy-3-methyl-but-1-ynyl)-N3-methyl-5,6,7,12-tetrahydro-5,7-methanobenzo[c]imidazo[1,2-a]azepine-2,3-dicarboxamide]	3200			
> 20000	CNC(=O)c1c(C(N)=O)nc2n1CCOc1cc(F)c(C#CC3(O)CCC3)cc1-2 [Example 362, 9-fluoro-10-[2-(1-hydroxycyclobutyl)ethy-nyl]-N3-methyl-5,6-dihydroimidazo[1,2-d][1,4]benzoxazepine-2,3-dicarbox-amide]	143			
> 20000	CC(C)(O)Cn1cc(-c2c(C(N)=O)nc3n2C2CC(C2)c2ccc(C#CC4(O)CCCC4)cc2-3)cn1 [Example 289]	2700			
> 20000	COC[C@](C)(O)C#Cc1cc2c(cc1F)C1CC(C1)n1cc(C(N)=O)nc1-2	2100			
	NC(=O)c1nc2c(s1)CCOc1cc(F)c(C#CC3(O)CCCC3)cc1-2 [Example 40, 8-fluoro-9-(1-hydroxy-cyclopentyl-ethynyl)-4,5-dihydro-6-oxa-3-thia-1-aza-benzo[e]azulene-2-carboxylic acid amide]		68	20000	
15300	COC[C@](C)(O)C#Cc1ccc2c(c1)-c1nc(C(N)=O)sc1[C@H](F)CO2	682			
> 20000	NC(=O)c1nc2n(c1C(O)c1ccn[nH]1)C1CC(C1)c1cc(F)c(C#CC3(O)CCCC3)cc1-2 (racemic) [Example 310]	2600			
> 20000	CNC(=O)c1c(C(N)=O)nc2n1C1CC(C1)c1ccc(C#CC3(O)CCCC3)cc1-2 (racemic)	709			
9500	CC(C)(O)C#Cc1ccc2c(c1)-c1nc(C(N)=O)c(-c3nnc(C4CC4)s3)n1C1CC2C1 [Example 390, 9-fluoro-10-(3-hydroxy-3-methyl-but-1-ynyl)-3-(trifluoromethyl)-5,6,7,12-tetrahydro-5,7-methanobenzo[c]imidazo[1,2-a]azepine-2-carboxamide]	1500			
20000	CC(O)(C#Cc1cc2c(cc1F)OCCc1sc(C(N)=O)nc1-2)c1ccccn1 (stereo not drawn) [Example 93]	344			
20000	CC(C)(O)C#Cc1cc2c(cc1F)C1CC(C1)c1c-2nc(C(N)=O)n1C(F)F [Example 411, 9-fluoro-10-(3-hydroxy-3-methyl-but-1-ynyl)-3-(pyrrolidin-1-ylmethyl)-5,6,7,12-tetrahydro-5,7-methanobenzo[c]imidazo[1,2-a]azepine-2-carboxamide]	73.2			
> 20000	CN1CC[C@@](O)(C#Cc2cc3c(cc2F)C2CC(C2)n2c-3nc(C(N)=O)c2C2CC2)C1=O [Example 333, 3-cyclopropyl-9-fluoro-10-[2-[(3R)-3-hy-droxy-1-methyl-2-oxo-pyrrolidin-3-yl]ethynyl]-5,6,7,12-tetrahydro-5,7-meth-anobenzo[c]imidazo[1,2-a]azepine-2-carboxamide]	2200			
> 20000	NC(=O)c1cn2c(n1)-c1cc(C#CC3(O)CCC3)c(F)cc1C1CC2C1 [Example 364, 9-fluoro-10-[2-(1-hydroxycyclobutyl)ethy-nyl]-5,6,7,12-tetrahydro-5,7-methano-benzo[c]imidazo[1,2-a]azepine-2-carboxamide]	985			
> 20000	Cc1nc2ccccc2n1Cc1c(C(N)=O)nc2n1CCOc1ccc(C#C[C@]3(O)CCN(C)C3=O)cc1-2 [Example 416, 9-fluoro-10-[(3R)-3-hydroxy-3-(5-methylisoxazol-3-yl)but-1-ynyl]-3-[1-(2-hydroxy-2-methyl-propyl)pyrazol-4-yl]-5,6,7,12-tetrahydro-5,7-methanobenzo[c]imidazo[1,2-a]azepine-2-carboxamide]	3200			
> 20000	CNC(=O)c1c(C(N)=O)nc2n1CCOc1ccc(C#C[C@]3(O)CCN(C)C3=O)cc1-2 (racemic) [Example 419, (±)-9-fluoro-10-(3-hydroxy-3-methyl-but-1-ynyl)-3-[(3-hydroxypyrrolidin-1-yl)methyl]-5,6,7,12-tetrahydro-5,7-methanobenzo[c]imidazo[1,2-a]azepine-2-carboxamide]	317			
> 20000	Cn1c(C(N)=O)nc2c1C1CC(C1)c1ccc(C#C[C@@](C)(O)c3ncccn3)cc1-2 [Example 427, 9-fluoro-10-(3-hydroxy-3-methyl-but-1-ynyl)-N3-methyl-5,6,7,12-tetrahydro-5,7-methanobenzo[c]imidazo[1,2-a]azepine-2,3-dicarboxamide]	453			

IC50 ([2]; HeLa) [nM]	SMILES	IC50 ([1]; Homo sapiens, HeLa, 5 h) [nM]	IC50 ([1]; Homo sapiens) [nM]	IC50 [2] [nM]	IC50 [1] [nM]
> 20000	CN1CCC(O)(C#Cc2cc3c(cc2F)OCCn2cc(C(N)=O)nc2-3)C1=O (racemic)	4100			
	Cc1cc([C@](C)(O)C#Cc2cc3c(cc2F)OCCn2c-3nc(C(N)=O)c2C(=O)NCC#N)no1 [Example 107]		83.1	20000	
> 20000	Cc1nc([C@](C)(O)C#Cc2cc3c(cc2F)OC[C@H](N(C)C)c2sc(C(N)=O)nc2-3)no1 [Example 258, (S)-4-(dimethylamino)-8-fluoro-9-[3-(R)-hydroxy-3-(5-methyl-1,2,4-oxadiazol-3-yl)but-1-ynyl]-4,5-dihydro-[1]benzoxe-pino[5,4-d]thiazole-2-carboxamide]	2900			2000
20000	CN1CC[C@@](O)(C#Cc2ccc3c(c2)-c2nc(C(N)=O)sc2CCO3)C1=O [Example 276]	94.6			
> 20000	Cc1c(C(N)=O)nc2n1C1CC(C1)c1cc(F)c(C#C[C@]3(O)CCN(C)C3=O)cc1-2 [Example 331, 9-fluoro-10-[2-[(3R)-3-hydroxy-1-meth-yl-2-oxo-pyrrolidin-3-yl]ethynyl]-3-meth-yl-5,6,7,12-tetrahydro-5,7-methano-benzo[c]imidazo[1,2-a]azepine-2-carboxamide]	1000			
> 20000	CNC(=O)c1c(C(N)=O)nc2n1C1CC(C1)c1ccc(C#CC(C)(C)O)cc1-2 (racemic)	736			
	NC(=O)c1cn2c(n1)-c1cc(C#CC3(O)CCC3)ccc1C1CC2C1 [Example 369, 10-[2-(1-hydroxycyclobutyl)ethynyl]-5,6,7,12-tetrahydro-5,7-methanobenzo[c]imi-dazo[1,2-a]azepine-2-carboxamide]		3700	> 20000	
> 20000	CN1CC[C@@](O)(C#Cc2ccc3c(c2)-n2nc(C(N)=O)c(C(F)(F)F)c2CCO3)C1=O (racemic) [Example 500]	381			
> 20000	Cn1nccc1C(O)c1c(C(N)=O)nc2n1C1CC(C1)c1cc(F)c(C#CC3(O)CCCC3)cc1-2 (stereo not drawn) [Example 304, 9-fluoro-10-[2-(1-hydroxycyclopen-tyl)ethynyl]-3-[hydroxy-(2-methylpyrazol-3-yl)methyl]-5,6,7,12-tetrahydro-5,7-meth-anobenzo[c]imidazo[1,2-a]azepine-2-car-boxamide]	1100			
> 20000	CN1CCC[C@@](O)(C#Cc2ccc3c(c2)-c2nc(C(N)=O)sc2C(F)(F)CO3)C1=O (racemic)	184			
> 20000	CN1CCC(O)(C#Cc2ccc3c(c2)-c2nc(C(N)=O)sc2CCO3)C1=O (racemic)	300			
20000	Cc1cc([C@](C)(O)C#Cc2cc3c(cc2F)OCCc2sc(C(N)=O)nc2-3)no1 [Example 39]	38			
> 20000	CC(C)(O)C#Cc1cc2c(cc1F)C1CC(C1)n1c-2nc(C(N)=O)c1CNC(=O)C1CC1 (racemic)	1400			
	CC(C)(O)C#Cc1cc2c(cc1F)C1CC(C1)n1c-2nc(C(N)=O)c1C(C)(C)O [Example 248, 9-fluoro-10-(3-hydroxy-3-methyl-but-1-ynyl)-3-(1-hydroxy-1-methyl-ethyl)-5,6,7,12-tetrahydro-5,7-methanobenzo[c]imi-dazo[1,2-a]azepine-2-carboxamide]		1400	> 20000	
> 20000	Cc1cc([C@](C)(O)C#Cc2ccc3c(c2)-n2nc(C(N)=O)cc2[C@H](F)CO3)no1	379			
